According to PubChem BioAssay (NCI):
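Five compound concentrations were applied to cells in 96-well plates for 48 hours; endpoints were derived by simple linear interpolation of the resulting dose-response curve. TGI: concentration producing complete growth inhibition.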

Tests used:
Experiment in all cases: DTP human tumour cell line panel, 48 h
UACC-62 melanoma = system: UACC-62 melanoma
RPMI-8226 leukemia = system: RPMI-8226 leukemia
NCI-H226 lung = system: NCI-H226 lung
HT29 colon = system: HT29 colon
ACHN renal = system: ACHN renal
UACC-257 melanoma = system: UACC-257 melanoma
MOLT-4 leukemia = system: MOLT-4 leukemia
NCI/ADR-RES ovarian = system: NCI/ADR-RES ovarian
HOP-62 NSCLC = system: HOP-62 NSCLC
RXF 393 renal = system: RXF 393 renal
SN12C renal = system: SN12C renal
SF-295 CNS = system: SF-295 CNS
MDA-MB-231 breast = system: MDA-MB-231 breast
SK-MEL-2 melanoma = system: SK-MEL-2 melanoma
A498 renal = system: A498 renal
786-0 renal = system: 786-0 renal
SK-MEL-5 melanoma = system: SK-MEL-5 melanoma
COLO 205 colon = system: COLO 205 colon
M14 melanoma = system: M14 melanoma
SNB-75 CNS = system: SNB-75 CNS
OVCAR-3 ovarian = system: OVCAR-3 ovarian
NCI-H522 lung = system: NCI-H522 lung
NCI-H23 lung = system: NCI-H23 lung
LOX IMVI melanoma = system: LOX IMVI melanoma
OVCAR-4 ovarian = system: OVCAR-4 ovarian
EKVX NSCLC = system: EKVX NSCLC
SK-OV-3 ovarian = system: SK-OV-3 ovarian
HL-60(TB) leukemia = system: HL-60(TB) leukemia
BT-549 breast = system: BT-549 breast
OVCAR-8 ovarian = system: OVCAR-8 ovarian
IGROV1 ovarian = system: IGROV1 ovarian
HCT-15 colon = system: HCT-15 colon
TK-10 renal = system: TK-10 renal
SK-MEL-28 melanoma = system: SK-MEL-28 melanoma
MCF7 breast = system: MCF7 breast
CCRF-CEM leukemia = system: CCRF-CEM leukemia
SF-268 CNS = system: SF-268 CNS
HCT-116 colon = system: HCT-116 colon
MALME-3M melanoma = system: MALME-3M melanoma
MDA-N = system: MDA-N
SNB-19 CNS = system: SNB-19 CNS
T-47D breast = system: T-47D breast
A549 NSCLC = system: A549 NSCLC
HS 578T breast = system: HS 578T breast
HOP-92 NSCLC = system: HOP-92 NSCLC
U251 CNS = system: U251 CNS
DU-145 prostate = system: DU-145 prostate
PC-3 prostate = system: PC-3 prostate
OVCAR-5 ovarian = system: OVCAR-5 ovarian
CAKI-1 renal = system: CAKI-1 renal
SW-620 colon = system: SW-620 colon
MDA-MB-435 = system: MDA-MB-435
NCI-H460 lung = system: NCI-H460 lung
KM12 colon = system: KM12 colon
SR leukemia = system: SR leukemia
SF-539 CNS = system: SF-539 CNS
K-562 leukemia = system: K-562 leukemia
HCC-2998 colon = system: HCC-2998 colon
UO-31 renal = system: UO-31 renal

Measured: TGI

CCn1c2ccccc2c2nnc(NCCCO)nc21
not listed: HCC-2998 colon | UO-31 renal
> 100 µM: all other assays above

CN(C)C(=S)/N=C1\SC(=Nc2ccccc2)C(=Nc2ccccc2)N1c1ccc([N+](=O)[O-])cc1
not listed: ACHN renal | UACC-257 melanoma | 786-0 renal | LOX IMVI melanoma | OVCAR-4 ovarian | EKVX NSCLC | TK-10 renal | SF-268 CNS | A549 NSCLC | SW-620 colon | SF-539 CNS
> 100 µM: all other assays above
